In US11129870B2, “Compositions and methods for uncoupling TrkB receptor from PLC gamma 1 for the treatment of epilepsy and anxiety-like disorder” (DUKE UNIVERSITY, priority 2010, dated 2021):
Where no end group is shown, it is not given here. [ ]: non-standard residue; d: D form. pY = N[C@@H](Cc1ccc(OP(=O)(O)O)cc1)C(=O)O

Assays:
[1] = tested on: hippocampal neurons (CA3b); assay: NeuN and GFAP immunostaining of hippocampal CA3b 10 weeks after SE; format: in vivo, mouse
Text: Neurons and astrocytes were visualized using antibodies against neuronal nuclei (mouse monoclonal to NeuN, 1:500; Millipore) and glial fibrillary acidic protein (rabbit polyclonal to GFAP, 1:1000; Sigma) detected with Alexafluor 488 coupled anti-mouse and Alexafluor 594 coupled anti-rabbit secondary antibodies (Molecular Probes), respectively. Images were captured using a Leica TCS SL confocal microscopy system equipped with a 63× oil-immersion objective lens. NeuN-positive cell counting was performed by an investigator blinded to the genotype and treatment conditions with ImageJ software (Ferreira, T. et al., (2011). The Image J User Guide) in a 260×260 μm field within the CA3b pyramidal cell layer. Mean counts were obtained from two adjacent rostral and two adjacent middle hippocampal sections ipsilateral to the infused amygdala.
Ten weeks following SE, mice were anesthetized with pentobarbital (200 mg/kg, i.p.) and underwent intra-cardiac perfusion with PBS containing heparin (5 U/ml) followed by 4% paraformaldehyde. Brains were removed, frozen by slow immersion in isopentane chilled in dry ice, cryoprotected, and sectioned. Serial 40 μm coronal sections were cut through the forebrain spanning the entire hippocampus. Adjacent sections at two levels relative to bregma (˜1.68 mm posterior designated “rostral”) or (˜2.32 mm posterior designated “middle”) were stained for NeuN and GFAP as previously described (Mouri, G. et al., (2008) Brain Res 1213:140-151) and mean counts of NeuN positive cells were obtained from two adjacent rostral and two adjacent middle hippocampal sections ipsilateral to the infused amygdala by an observer blinded to treatment.

[2] = tested on: ERK; assay: BDNF-mediated increase of p-ERK in cultured cortical neurons (western blot); format: cell-based, rat; details: 10 μM, 10-120 min pretreatment
[3] = tested on: Akt; assay: BDNF-mediated increase of p-Akt in cultured cortical neurons (western blot); format: cell-based, rat; details: 10 μM, 10-120 min pretreatment
[4] = tested on: anxiety-like behavior; assay: Light/dark box test of anxiety-like behavior 8 weeks after SE; format: in vivo, mouse; details: 8 weeks post-SE; Scr vs PBS controls, pY816 vs Scr
Method: It was therefore tested whether this SE-induced behavioral abnormality could also be prevented by treatment with pY816 initiated following SE. To address this question, following completion of video-EEG recording during days 29-42, anxiety-like behavior was assessed using the light-dark emergence test (Bourin, M. et al., (2003) Eur J Pharmacol 463:55-65).
Specifically, a plexiglas arena (40×40×40 cm) was placed in a room with homogenous illumination (˜300 lux). The arena was subdivided into sixteen 10×10 cm squares by lines marked on the floor. Each mouse was placed in the center of the open field and allowed to explore freely the apparatus for 5 minutes. The apparatus ([…]) consisted of two acrylic compartments. The dark compartment (30×40 cm) and light compartment (40×40×40 cm, brightly illuminated at 600 lux) were separated by a divider with a 5.5×5.5 cm opening at floor level. Mice were placed into the dark side and allowed to move freely between the two chambers with the door open for 5 minutes. During behavior tests, a video camera was mounted directly above the arena to monitor animal activity and movement. An investigator unaware of the treatment reviewed the video and recorded: 1) line crossing (frequency of crossing grid lines with all four paws) and the frequency of rearing (standing on hind legs or leaning against the walls of the arena) to assess locomotor activity in open field test; and 2) the latency to first entry into lighted compartment (entering the lighted side with all four paws) and the total time spent on the lighted side to assess anxiety-like behavior in light/dark box test.
Following completion of video-EEG monitoring for recurrent seizures, all KA-infused mice were subjected to open field and light/dark box tests at 8 weeks post-SE. Control animals underwent infusion of PBS into the amygdala and subsequently i.v. infusion of Scr or pY816 peptide and were tested 8 weeks after PBS infusion. No differences were found between Scr and pY816 treated control animals and these groups were combined for analyses.

[5] = tested on: TrkB-mediated activation of PLCγ1; assay: BDNF-mediated activation of PLCγ1 (p-PLCγ1 Y783 western blot) in cultured cortical neurons; format: cell-based, rat; details: for BDNF-mediated increase of p-PLC γ-1/PLC γ-1 ratio (quantified, FIG. 10): 10-120 min pretreatment, 120 min p<0.05; for inhibition of BDNF-mediated increased p-PLCγ1 783: preincubation 60-120 min, BDNF 10 ng/ml

Substance | reactive gliosis (enlarged GFAP-immunoreactive cells) in CA3b [1] | reduction of neuron loss ([1]; compared to Scr treatment) | BDNF-mediated increase of the p-ERK/ERK ratio (quantified, FIG. 12) [2] | BDNF-mediated increase of the p-Akt/Akt ratio (quantified, FIG. 11) [3] | latency to enter the lighted compartment [4] | time spent in lighted compartment [4] | inhibition of BDNF-mediated activation of PLCγ1 (pPLCγ1 783 immunoreactivity) ([5]; 0.1 μM, 90 mins preincubation, BDNF 10 ng/ml 15 mins) | inhibition of BDNF-induced increase of pPLCγ1 783 ([5]; 1 μM, 90 mins preincubation, BDNF 10 ng/ml 15 mins) | BDNF-mediated increase of p-PLC γ-1/PLC γ-1 ratio (quantified, FIG. 10) ([5]; 10 μM) | inhibition of BDNF-mediated PLCγ1 activation ([5]; 10 μM, 60 min preincubation, compared to Scr) | inhibition of BDNF mediated PLCγ1 activation ([5]; 10 μM, 90 min preincubation, compared to Scr) | inhibition of BDNF-induced increase of pPLCγ1 783 ([5]; 10 μM, 90 mins preincubation, BDNF 10 ng/ml 15 mins) | inhibition of BDNF-mediated PLCγ1 activation ([5]; 10 μM, 120 min preincubation, compared to Scr) | inhibition of BDNF-mediated increased p-PLCγ1 783 ([5]; 10 μM) | reduction of neurons (NeuN immunoreactive cells) in CA3b hippocampus ([1]; compared to PBS-infused controls)
YGRKKRRQRRR-LQNLAKASPVpYLDI (YGRKKRRQRRRLQNLAKASPV[pY]LDI) [pY816] | attenuated | ~30% | Neither the Phospho-Tat-TrkBY816 nor the Scr-phospho-Tat-TrkBY816 peptide inhibited | Neither the Phospho-Tat-TrkBY816 nor the Scr-phospho-Tat-TrkBY816 peptide inhibited | significantly reduced latency | spent increased time | did not inhibit | limited the BDNF-induced increase of pPLCγ1 783 in a concentration dependent manner | inhibited the BDNF-mediated increase of p-PLC γ-1/PLC γ-1 ratio in a time dependent manner | 68.2% | 79.3% | limited the BDNF-induced increase of pPLCγ1 783 in a concentration dependent manner | 94.5% | inhibited BDNF-mediated increased p-PLCγ1 783 | 
YGRKKRRQRRRLVApYQLKIAPNDLS (YGRKKRRQRRRLVA[pY]QLKIAPNDLS) [Scr, reference compound] |  |  | Neither the Phospho-Tat-TrkBY816 nor the Scr-phospho-Tat-TrkBY816 peptide inhibited | Neither the Phospho-Tat-TrkBY816 nor the Scr-phospho-Tat-TrkBY816 peptide inhibited | prolonged latency | spent less time |  |  | ineffective |  |  |  |  | no inhibition was evident | ~50%
